In this test the target is T1, human recombinant LPA1 expressed in CHO cells (Homo sapiens, UniProt Q92633).
T1 construct: expressed in transfected cells; host or cells: CHO cells (CHO-hLPA1 cell line)
As to the kind of experiment: FLIPR calcium mobilization assay, LPA1 antagonism in CHO-hLPA1 cells. It is filed as cell-based. To be noted: inhibition of LPA EC80 Ca2+ response, 30 min pre-incubation, expressed as range of activity. Here is the method: The effectiveness of compounds of the present invention as LPA1 antagonist can be determined at the human recombinant LPA1 expressed in CHO cells, using a FLIPR assay in 384 well format.
CHO-hLPA1 cell lines are cultured in a humidified incubator at 5% C02 in DMEM/F-12 (1:1) MIXTURE with 2 mM Glutamax, supplemented with 10% of Foetal Bovine Serum, 1 mM Sodium Pyruvate, 11 mM Hepes and 1× Penicillin/Streptomycin. […] Serial dilutions (1:3 or 1:4, 11 points CRC) of compounds are performed in 100% DMSO at 200× the final concentration. […] The final concentration of DMSO in the assay will be 0.5% in each well. Medium is removed by aspiration and cells are then incubated with 30 μl of a loading solution containing 5 μM of the cytoplasmic Ca2+ indicator Cal-520 AM in Assay Buffer containing 2.5 mM probenecid for 30 min at 37° C. incubator (cell loading). The loaded cell plates are transferred into the FLIPR instrument and calcium responses are monitored during the on-line addition protocols. For testing of compounds, after the cell loading, 10 μl/well of 4× antagonists' solution was added onto the cells. After 30 min pre-incubation (at 37° C.), 10 μl/well of 5× concentrated LPA EC80 was added and Ca2+ mobilization responses was followed during the on-line addition protocol. Intracellular peak fluorescence values subtracted by baseline fluorescence are exported and analysed to determine IC50 values, respectively. The calcium response is expressed as percentage of the maximal inhibition of the EC80 agonist response.
The raw data (peak height expressed as relative fluorescence units) are normalized and transformed into “percent of inhibition”. Curve fitting and pIC50 (−LogIC50) estimations are carried out using a four-parameter logistic model using XLfit Software.

In general, IC50 refers to the point on the concentration scale where inhibition reaches its midpoint.

T1 sequence (Q92633 whole entry): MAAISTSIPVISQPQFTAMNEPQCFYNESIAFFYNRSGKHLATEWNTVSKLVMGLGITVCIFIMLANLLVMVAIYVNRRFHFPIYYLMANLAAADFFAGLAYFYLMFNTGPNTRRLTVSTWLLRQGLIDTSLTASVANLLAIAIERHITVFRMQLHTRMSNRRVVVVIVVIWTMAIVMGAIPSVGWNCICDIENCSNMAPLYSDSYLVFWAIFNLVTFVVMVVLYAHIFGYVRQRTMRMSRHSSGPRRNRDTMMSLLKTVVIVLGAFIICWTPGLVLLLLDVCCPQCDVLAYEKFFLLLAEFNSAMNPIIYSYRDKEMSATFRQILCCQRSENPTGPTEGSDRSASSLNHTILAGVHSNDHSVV

With `Cc1nc(-c2onc(C)c2NS(=O)(=O)CCOc2ccc(F)cc2)ccc1NC(=O)[C@H]1CCCC[C@@H]1C(=O)O` [Compound 25, (1S,2S)-2-((6-(4-((2-(4-fluorophenoxy)ethyl)sulfonamido)-3-methylisoxazol-5-yl)-2-methylpyridin-3-yl)carbamoyl)cyclohexane-1-carboxylic acid], the IC50 was in the range of 0.05 to 0.25 µM.

Take `Cc1nc(-c2onc(C)c2NS(=O)(=O)CCCc2ccccc2)ccc1NC(=O)[C@H]1CCCC[C@@H]1C(=O)O` [Compound 26, (1S,2S)-2-((2-methyl-6-(3-methyl-4-((3-phenylpropyl)sulfonamido)isoxazol-5-yl)pyridin-3-yl)carbamoyl)cyclohexane-1-carboxylic acid]: the IC50 was less than 0.05 µM.

For `Cc1nc(-c2onc(C)c2NS(=O)(=O)CCc2ccc(F)cc2)ccc1NC(=O)[C@H]1CCCC[C@@H]1C(=O)O` [Compound 27], the IC50 is 0.05 to 0.25 µM.

As for `Cc1nc(-c2onc(C)c2NS(=O)(=O)CCc2ccc(Cl)cc2)ccc1NC(=O)[C@H]1CCCC[C@@H]1C(=O)O` [Compound 28, (1S,2S)-2-((6-(4-((2-(4-chlorophenyl)ethyl)sulfonamido)-3-methylisoxazol-5-yl)-2-methylpyridin-3-yl)carbamoyl)cyclohexane-1-carboxylic acid], the IC50 is less than 0.05 µM.

Take `Cc1nc(-c2onc(C)c2CNC(=O)OCc2ccccc2)ccc1NC(=O)[C@H]1CCCC[C@@H]1C(=O)O` [Compound 32, (1S,2S)-2-((6-(4-((((benzyloxy)carbonyl)amino)methyl)-3-methylisoxazol-5-yl)-2-methylpyridin-3-yl)carbamoyl)cyclohexane-1-carboxylic acid]: the IC50 lay within 0.05 to 0.25 µM.

Consider `Cc1nc(-c2onc(C)c2CNC(=O)O[C@H](C)c2ccccc2)ccc1NC(=O)[C@H]1CCCC[C@@H]1C(=O)O` [Compound 35, (1S,2S)-2-((2-methyl-6-(3-methyl-4-(((((R)-1-phenylethoxy)carbonyl)amino)methyl)isoxazol-5-yl)pyridin-3-yl)carbamoyl)cyclohexane-1-carboxylic acid], for which the IC50 lay within 0.25 to 0.6 µM.

With `CCOc1ccnc(NCc2c(C)noc2-c2ccc(NC(=O)[C@H]3CCCC[C@@H]3C(=O)O)c(C)n2)n1` [Compound 36, (1S,2S)-2-((6-(4-(((4-ethoxypyrimidin-2-yl)amino)methyl)-3-methylisoxazol-5-yl)-2-methylpyridin-3-yl)carbamoyl)cyclohexane-1-carboxylic acid], the IC50 lay in the range of 0.05 to 0.25 µM.

Regarding `Cc1nc(-c2onc(C)c2CNc2nccc(-c3cccs3)n2)ccc1NC(=O)[C@H]1CCCC[C@@H]1C(=O)O` [Compound 37, (1S,2S)-2-((2-methyl-6-(3-methyl-4-(((4-(thiophen-2-yl)pyrimidin-2-yl)amino)methyl)isoxazol-5-yl)pyridin-3-yl)carbamoyl)cyclohexane-1-carboxylic acid], the IC50 was less than 0.05 µM.

As for `Cc1nc(-c2onc(C)c2CNc2nccc(-c3cccnc3)n2)ccc1NC(=O)[C@H]1CCCC[C@@H]1C(=O)O` [Compound 38, (1S,2S)-2-((2-methyl-6-(3-methyl-4-(((4-(pyridin-3-yl)pyrimidin-2-yl)amino)methyl)isoxazol-5-yl)pyridin-3-yl)carbamoyl)cyclohexane-1-carboxylic acid], the IC50 is less than 0.05 µM.

With `Cc1nc(-c2onc(C)c2CNc2nccc(-c3ccsc3)n2)ccc1NC(=O)[C@H]1CCCC[C@@H]1C(=O)O` [Compound 39, (1S,2S)-2-((2-methyl-6-(3-methyl-4-(((4-(thiophen-3-yl)pyrimidin-2-yl)amino)methyl)isoxazol-5-yl)pyridin-3-yl)carbamoyl)cyclohexane-1-carboxylic acid], the IC50 was less than 0.05 µM.

As for `Cc1nc(-c2onc(C)c2CNc2nccc(-c3cccc4ccccc34)n2)ccc1NC(=O)[C@H]1CCCC[C@@H]1C(=O)O` [Compound 40, (1S,2S)-2-((2-methyl-6-(3-methyl-4-(((4-(naphthalen-1-yl)pyrimidin-2-yl)amino)methyl)isoxazol-5-yl)pyridin-3-yl)carbamoyl)cyclohexane-1-carboxylic acid], the IC50 was less than 0.05 µM.

In the case of `Cc1nc(-c2onc(C)c2CNc2nccc(-c3ccco3)n2)ccc1NC(=O)[C@H]1CCCC[C@@H]1C(=O)O` [Compound 41, (1S,2S)-2-((6-(4-(((4-(furan-2-yl)pyrimidin-2-yl)amino)methyl)-3-methylisoxazol-5-yl)-2-methylpyridin-3-yl)carbamoyl)cyclohexane-1-carboxylic acid], the IC50 was less than 0.05 µM.

Regarding `Cc1nc(-c2nnn(C)c2CNC(=O)O[C@H](C)c2ccccc2Cl)ccc1NC(=O)[C@H]1CCCC[C@@H]1C(=O)O` [Compound 42, (1S,2S)-2-((6-(5-(((((R)-1-(2-chlorophenyl)ethoxy)carbonyl)amino)methyl)-1-methyl-1H-1,2,3-triazol-4-yl)-2-methylpyridin-3-yl)carbamoyl)cyclohexane-1-carboxylic acid], the IC50 lay in the range of 0.25 to 0.6 µM.

With `Cc1nc(-c2nnn(C)c2CNc2nccc(C3CCCCC3)n2)ccc1NC(=O)[C@H]1CCCC[C@@H]1C(=O)O` [Compound 44, (1S,2S)-2-((6-(5-(((4-cyclohexylpyrimidin-2-yl)amino)methyl)-1-methyl-1H-1,2,3-triazol-4-yl)-2-methylpyridin-3-yl)carbamoyl)cyclohexane-1-carboxylic acid], the IC50 is less than 0.05 µM.

Take `Cc1nc(-c2onc(C)c2COC(=O)N(C)C2CCCC2)ccc1NC(=O)[C@H]1CCCC[C@@H]1C(=O)O` [Compound 45, (1S,2S)-2-((6-(4-(((cyclopentyl(methyl)carbamoyl)oxy)methyl)-3-methylisoxazol-5-yl)-2-methylpyridin-3-yl)carbamoyl)cyclohexane-1-carboxylic acid]: the IC50 lay in the range of 0.05 to 0.25 µM.

On to `Cc1nc(-c2onc(C)c2Nc2cncc(C3CCCC3)n2)ccc1OC[C@H]1CCCC[C@@H]1C(=O)O` [Compound 46, (1S,2S)-2-(((6-(4-((6-cyclopentylpyrazin-2-yl)amino)-3-methylisoxazol-5-yl)-2-methylpyridin-3-yl)oxy)methyl)cyclohexane-1-carboxylic acid], for which the IC50 is less than 0.05 µM.

In the case of `CCOc1cncc(Nc2c(C)noc2-c2ccc(OC[C@H]3CCCC[C@@H]3C(=O)O)cn2)n1` [Compound 47, (1S,2S)-2-(((6-(4-((6-ethoxypyrazin-2-yl)amino)-3-methylisoxazol-5-yl)pyridin-3-yl)oxy)methyl)cyclohexane-1-carboxylic acid], the IC50 is less than 0.05 µM.

On to `Cc1noc(-c2ccc(OC[C@H]3CCCC[C@@H]3C(=O)O)cn2)c1Nc1cncc(OC(C)C)n1` [Compound 48, (1S,2S)-2-(((6-(4-((6-isopropoxypyrazin-2-yl)amino)-3-methylisoxazol-5-yl)pyridin-3-yl)oxy)methyl)cyclohexane-1-carboxylic acid], for which the IC50 is less than 0.05 µM.

For the compound `Cc1noc(-c2ccc(OC[C@H]3CCCC[C@@H]3C(=O)O)cn2)c1Nc1cncc(OCC(F)(F)F)n1` [Compound 49, (1S,2S)-2-(((6-(3-methyl-4-((6-(2,2,2-trifluoroethoxy)pyrazin-2-yl)amino)isoxazol-5-yl)pyridin-3-yl)oxy)methyl)cyclohexane-1-carboxylic acid], the IC50 was less than 0.05 µM.

Regarding `Cc1noc(-c2ccc(OC[C@H]3CCCC[C@@H]3C(=O)O)cn2)c1Nc1cncc(OCC(C)C)n1` [Compound 50, (1S,2S)-2-(((6-(4-((6-isobutoxypyrazin-2-yl)amino)-3-methylisoxazol-5-yl)pyridin-3-yl)oxy)methyl)cyclohexane-1-carboxylic acid], the IC50 is less than 0.05 µM.

As for `CCOc1cncc(Nc2c(C)noc2-c2ccc(OC[C@H]3CCCC[C@@H]3C(=O)O)c(C)n2)n1` [Compound 51, (1S,2S)-2-(((6-(4-((6-ethoxypyrazin-2-yl)amino)-3-methylisoxazol-5-yl)-2-methylpyridin-3-yl)oxy)methyl)cyclohexane-1-carboxylic acid], the IC50 was less than 0.05 µM.

With `Cc1nc(-c2onc(C)c2Nc2cncc(OC(C)C)n2)ccc1OC[C@H]1CCCC[C@@H]1C(=O)O` [Compound 52, (1S,2S)-2-(((6-(4-((6-isopropoxypyrazin-2-yl)amino)-3-methylisoxazol-5-yl)-2-methylpyridin-3-yl)oxy)methyl)cyclohexane-1-carboxylic acid], the IC50 was less than 0.05 µM.

Regarding `COc1cncc(Nc2c(C)noc2-c2ccc(OC[C@H]3CCCC[C@@H]3C(=O)O)c(C)n2)n1` [Compound 53, (1S,2S)-2-(((6-(4-((6-methoxypyrazin-2-yl)amino)-3-methylisoxazol-5-yl)-2-methylpyridin-3-yl)oxy)methyl)cyclohexane-1-carboxylic acid], the IC50 lay in the range of 0.05 to 0.25 µM.

`CCCc1cncc(Nc2c(C)noc2-c2ccc(OC[C@H]3CCCC[C@@H]3C(=O)O)c(C)n2)n1` [Compound 54, (1S,2S)-2-(((2-methyl-6-(3-methyl-4-((6-propylpyrazin-2-yl)amino)isoxazol-5-yl)pyridin-3-yl)oxy)methyl)cyclohexane-1-carboxylic acid]: the IC50 was less than 0.05 µM.

The values are drawn from US20250066341A1 (CHIESI FARMACEUTICI S.P.A., priority 2021, published 2025).
